Here are results for 15 compounds from ChEMBL document CHEMBL2176899, “Structure-activity relationships and blood distribution of antiplasmodial aminopeptidase-1 inhibitors” (J Med Chem, 2012).

In data set [1] the test system is MRC5. The data set is described as follows: Cytotoxicity against human MRC5 SV2 cells after 72 hrs by resazurin fluorimetric analysis. As to conditions: MRC5, 72 h. The data set is classed as cell-based.
The nature of data set [2]: Inhibition of Plasmodium falciparum AM1 using Leu-pNA as substrate preincubated for 10 mins.
Data set [3] concerns the target T1, Aminopeptidase N (Sus scrofa, UniProt P15145).
T1 sequence (P15145 whole entry): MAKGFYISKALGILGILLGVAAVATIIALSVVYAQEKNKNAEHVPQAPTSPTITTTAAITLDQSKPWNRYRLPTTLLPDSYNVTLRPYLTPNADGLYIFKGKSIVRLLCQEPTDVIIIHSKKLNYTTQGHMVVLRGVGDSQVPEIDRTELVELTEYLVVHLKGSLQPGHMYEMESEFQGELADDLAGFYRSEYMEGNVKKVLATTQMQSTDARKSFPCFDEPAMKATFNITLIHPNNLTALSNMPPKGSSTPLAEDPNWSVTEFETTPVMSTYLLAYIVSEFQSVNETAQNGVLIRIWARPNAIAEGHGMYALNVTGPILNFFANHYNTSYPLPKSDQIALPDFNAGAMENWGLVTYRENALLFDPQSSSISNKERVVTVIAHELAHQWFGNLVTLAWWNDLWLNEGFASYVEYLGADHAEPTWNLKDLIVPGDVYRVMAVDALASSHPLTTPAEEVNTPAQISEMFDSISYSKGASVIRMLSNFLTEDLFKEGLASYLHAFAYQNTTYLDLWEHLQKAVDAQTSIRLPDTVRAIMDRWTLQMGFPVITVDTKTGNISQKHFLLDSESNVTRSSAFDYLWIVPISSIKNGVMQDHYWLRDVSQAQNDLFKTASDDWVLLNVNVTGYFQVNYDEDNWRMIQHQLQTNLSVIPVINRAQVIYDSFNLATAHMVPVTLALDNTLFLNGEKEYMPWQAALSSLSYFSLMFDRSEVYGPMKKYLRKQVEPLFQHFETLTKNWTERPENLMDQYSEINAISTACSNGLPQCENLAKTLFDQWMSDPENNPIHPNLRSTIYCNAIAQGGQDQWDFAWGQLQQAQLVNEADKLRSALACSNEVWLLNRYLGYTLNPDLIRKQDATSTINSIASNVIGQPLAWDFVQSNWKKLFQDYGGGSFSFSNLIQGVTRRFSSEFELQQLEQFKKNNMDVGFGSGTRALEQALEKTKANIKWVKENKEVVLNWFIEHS
The data set is described as follows: Inhibition of porcine kidney microsomal neutral aminopeptidase using Leu-pNA as substrate preincubated for 10 mins.

Data set [4] deals with Plasmodium falciparum. The data set is described as follows: microbe, parasite or virus in culture. Conditions: K1, 72 h.
Description: Antimalarial activity against Plasmodium falciparum K1 infected in human O positive erythrocytes under low oxygen atmosphere after 72 hrs by spectrophotometric analysis
Data set [5] relates to Plasmodium falciparum. The data set is described as follows: microbe, parasite or virus in culture. As to conditions: 3D7, 72 h.
Description: Antimalarial activity against Plasmodium falciparum 3D7 infected in human O positive erythrocytes under low oxygen atmosphere after 72 hrs by spectrophotometric analysis
A short description of data set [6]: Half life in human plasma. Format: ADME, cell-free.
Data set [7] is described as follows: Elimination half life in CD1 mouse RBC at 50 mg/kg, ip. Format: ADME, organism-based, Erythrocyte. Conditions: red blood cells, read-out: beta t1/2 (converted). Also noted: dose 50 mg/kg, route intraperitoneal.
Data set [8] in a line: AUC (0 to infinity) in CD1 mouse RBC at 50 mg/kg, ip. The data set is classed as ADME, organism-based, Erythrocyte. More on the design: time infinity, dose 50 mg/kg, route intraperitoneal. Conditions: in vivo.
Data set [9] has as its system Plasma. The data set is described as follows: Tlast in CD1 mouse plasma at 50 mg/kg, ip. As to conditions: in vivo. More on the design: dose 50 mg/kg, route intraperitoneal. Format: ADME, organism-based.
Data set [10] is described as follows: Drug metabolism assessed as N-(4-Fluorobenzyl)-N'-hydroxy-2-[1-phenylmeth-(E)-ylidene]malonamide fromation through GSH-adduct at 1 uM up to 60 mins. Conditions: 1 h.
Data set [11] deals with Liver. The data set is described as follows: Metabolic stability in mouse liver microsomes at 1 uM after 30 mins. The data set is classed as ADME, Microsome. As to conditions: 0.5 h.
For data set [12], the target named is Carbonic anhydrase 2 (Homo sapiens) (UniProt P00918). The data set is described as follows: Inhibition of human erythrocyte carbonic anhydrase-2 assessed as hydrolysis of 4-nitrophenylacetate at 1 to 50 uM.
Data set [13] can be described thus: Elimination half life in CD1 mouse plasma at 50 mg/kg, ip. Format: ADME, organism-based. More on the design: dose 50 mg/kg, route intraperitoneal. As to conditions: read-out: beta t1/2 (converted).
Data set [14] is described as follows: Metabolic stability in CD1 mouse RBC assessed as N-(4-Fluorobenzyl)-N'-hydroxy-2-[1-phenylmeth-(E)-ylidene]malonamide fromation through GSH-adduct at 50 mg/kg, ip. The data set is classed as ADME, organism-based, Erythrocyte. Also noted: dose 50 mg/kg, route intraperitoneal. Conditions: in vivo.
Data set [15] in a line: AUC (0 to last) in CD1 mouse RBC at 50 mg/kg, ip. Format: ADME, organism-based, Erythrocyte. Also noted: dose 50 mg/kg, route intraperitoneal, time 0 - last. Conditions: red blood cells.
Data set [16] can be described thus: AUC (0 to infinity) in CD1 mouse plasma at 50 mg/kg, ip. Also noted: time infinity, dose 50 mg/kg, route intraperitoneal. The data set is classed as ADME, organism-based.
The nature of data set [17]: AUC (0 to last) in CD1 mouse plasma at 50 mg/kg, ip. The data set is classed as ADME, organism-based. Also noted: time 0 - last, dose 50 mg/kg, route intraperitoneal.
The test system of data set [18] is Plasma. The data set is described as follows: Metabolic stability in CD1 mouse plasma assessed as N-(4-Fluorobenzyl)-N'-hydroxy-2-[1-phenylmeth-(E)-ylidene]malonamide fromation through GSH-adduct at 50 mg/kg, ip. The data set is classed as ADME, organism-based. As to conditions: in vivo. Also noted: dose 50 mg/kg, route intraperitoneal.
The nature of data set [19]: Half life in rat plasma. The data set is classed as ADME, cell-free.
A short description of data set [20]: Solubility of the compound in PBS at pH 7.4 after 24 hrs. Format: physicochemical.
The nature of data set [21]: Partition coefficient, log D of the compound in octanol-phosphate buffer at pH 7.4. The data set is classed as physicochemical.

Values after ≈ are worked out from the molar mass of the structure shown. Active and inactive are the calls of the source. The rule behind the calls is not given here. Bounds are passed on as bounds.

On to `O=C(NO)C(Cc1ccccc1)C(=O)NCc1ccncc1` (centres undefined), for which the half-inhibitory concentration (IC50) in [1] was over 64 µM; in [2], 1.05 µM; in data set [3], 4.55 µM; in data set [4] it was over 64 µM.

Consider `O=C(NO)/C(=C\c1ccccc1)C(=O)NCc1ccncc1`, for which the IC50 came out at 0.44 µM in data set [2] and 2 µM in data set [3].

`CC(C)C[C@H](NC(=O)[C@@H](O)[C@H](N)Cc1ccccc1)C(=O)O` [UBENIMEX]: in [5], half-maximal inhibition (IC50) was put at 8 µM.

Turning to `CC(Cc1ccccc1)(C(=O)NO)C(=O)NCc1ccc(F)cc1` (centres undefined), the IC50 in data set [1] was over 64 µM; in data set [2], 0.056 µM; in data set [3], over 10 µM; in data set [4], 50.1 µM.

Take `O=C(NO)C(Cc1ccc(F)cc1)C(=O)NCc1ccccc1` (centres undefined): the IC50 in data set [1] was over 64 µM; in data set [2], 0.31 µM; in data set [3], 1.32 µM; in data set [4], 36.5 µM.

On to `O=C(NO)C(Cc1ccccc1)C(=O)NCc1ccccc1` (centres undefined), for which the IC50 in data set [2] is 0.125 µM; in data set [3], over 10 µM.

Regarding `O=C(NO)C(Cc1ccc(F)cc1)C(=O)NCc1ccc(F)cc1` (centres undefined), the IC50 in data set [1] was over 64 µM; in data set [2] it was 0.258 µM; in data set [3] it was 3.96 µM; in data set [4] it was 41.6 µM.

Take `O=C(NO)C(Cc1ccccc1)C(=O)NCc1ccccc1F` (centres undefined): the IC50 was over 64 µM in data set [1], 0.256 µM in data set [2], 2.22 µM in data set [3] and 37.9 µM in [4].

Turning to `O=C(NO)/C(=C\c1ccccc1)C(=O)NCc1ccc(F)cc1`, the half-life in data set [6] was over 24 h; in [7], 1.5 h; in [13], 1 h. In addition, the IC50 in data set [1] was 32 µM; in data set [2], 0.006 µM; in data set [4] it was 11 µM. Also, the AUC in data set [8] amounted to 98 µM·h. The Tlast in data set [9] worked out at 6 h. The Drug metabolism result in data set [10] is reported as “Active”. The Stability result in [11], in data set [14] and in data set [18] was “Stable” each time. Besides, in data set [12], the inhibition entry is “inactive”. Also, the AUC(0-t) in data set [15] was found to be 90 µM·h; in data set [17], 66 µM·h. This compound also displayed an area under the curve AUC(0-inf) in [16] of 68 µM·h.

For `NC(CCc1ccccc1)P(=O)(O)CC(Cc1ccccc1)C(=O)O` (centres undefined), in data set [5], the midpoint of inhibition, the IC50, lay at 24 µM.

For `O=C(NO)C(Cc1ccccc1)C(=O)NCc1cccc(F)c1` (centres undefined), the IC50 in data set [1] is over 64 µM; in data set [2] it was 0.21 µM; in data set [3], 2.33 µM; in data set [4] it was 24.7 µM.

For the compound `O=C(NO)C(Cc1ccccc1)C(=O)NCc1ccc(F)cc1` (centres undefined), the half-life in data set [6] was over 24 h; in data set [19], 0.8 h. The IC50 in data set [1] was over 64 µM; in data set [2], 0.027 µM; in data set [4], 17.4 µM. This compound gave a solubility at 24 h in data set [20] of over 200 µM.

In the case of `O=C(NO)/C(=C\c1ccc(F)cc1)C(=O)NCc1ccc(F)cc1`, the figures for the half-life in [6] and in [19] were over 24 h and 3 h, respectively. In addition, the IC50 in data set [1] was determined as 32.2 µM; in data set [2], 0.043 µM; in data set [3], 4.2 µM; in data set [4] it was 30.4 µM. Moreover, the pH-dependent lipophilicity (logD) in data set [21] was determined as 1.7. The compound also returned a solubility at 24 h in data set [20] of 190 µM (≈ 63.1 µg/mL).

Take `O=C(NO)/C(=C\c1ccc(F)cc1)C(=O)NCc1ccccc1`: the IC50 in data set [2] turned out to be 0.069 µM; in data set [3], 2.4 µM.

For `O=C(NO)/C(=C/c1ccccc1)C(=O)NCc1ccc(F)cc1`, the IC50 in [2] is 0.33 µM; in data set [3], over 10 µM.
